Earlier results in EP0116853A1, “Pyridazinones, processes for preparing them, therapeutical compositions containing these compounds and their use” (BASF Aktiengesellschaft, priority 1983, dated 1984).

Conditions: in contrast to the corresponding 4,5-dihydro compound

SMILES: CC(=O)Nc1ccc(-c2n[nH]c(=O)cc2C)cc1 [6-(p-Acetylamino-phenyl)-5-methyl-3(2H)-pyridazinon]
- blutdrucksenkende Wirkung: keine blutdrucksenkende Wirkung
